Measured values: patent publication US10940139B2, “Compounds that interact with the Ras superfamily for the treatment of cancers, inflammatory diseases, rasopathies, and fibrotic disease” (Shy Therapeutics LLC, priority 2017, dated 2021)

What was measured:
Experiment in all cases: Ras GTP binding domain inhibition assay (labeled GTP)
KRas Q61H mutant = KRas Q61H mutant (Homo sapiens (Human), UniProt P01116, Q61H); details: 20 μM compound; KRas Q61H; read-out: % Inhibition at 20 μM of K-Ras mutant and wild-type protein, KRas Q61H
Sequence of KRas Q61H mutant (P01116-2 other isoform, or with tags, fused parts or gaps Q61H): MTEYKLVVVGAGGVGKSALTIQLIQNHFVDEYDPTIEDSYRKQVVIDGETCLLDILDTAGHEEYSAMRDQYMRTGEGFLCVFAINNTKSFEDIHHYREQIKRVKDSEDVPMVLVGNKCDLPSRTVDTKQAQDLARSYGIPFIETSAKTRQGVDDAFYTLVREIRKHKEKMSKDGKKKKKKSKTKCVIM
Procedure, shortened: (§1)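 Labelled-GTP binding: plate-captured His-KRas protein was pre-exposed to compound for 3 h at room temperature (single 20 μM point or dilution series, 1% DMSO, Tris pH 7.5/MgCl2/DTT buffer). Cy3- or Cy5-GTP was then added for 45 min. Washed wells were read for retained fluorescence to give inhibition or IC50.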

[1] = target: KRas G12C/Q61H double mutant (Homo sapiens (Human), UniProt P01116, G12C/Q61H); details: 20 μM compound; KRas G12C/Q61H double mutant; read-out: % Inhibition at 20 μM of K-Ras mutant and wild-type protein, KRas G12C Q61H
Sequence of KRas G12C/Q61H double mutant (P01116-2 other isoform, or with tags, fused parts or gaps G12C/Q61H): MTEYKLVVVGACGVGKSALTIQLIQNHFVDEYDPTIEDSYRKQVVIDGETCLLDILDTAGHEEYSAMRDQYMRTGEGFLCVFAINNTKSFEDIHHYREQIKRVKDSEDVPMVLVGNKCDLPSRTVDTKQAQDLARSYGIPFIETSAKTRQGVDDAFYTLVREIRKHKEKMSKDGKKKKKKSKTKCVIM
Procedure, shortened: as §1

[2] = target: KRas G12D/Q61H double mutant (Homo sapiens (Human), UniProt P01116, G12D/Q61H); details: 20 μM compound; KRas G12D/Q61H double mutant; read-out: % Inhibition at 20 μM of K-Ras mutant and wild-type protein, KRas G12D Q61H
Sequence of KRas G12D/Q61H double mutant (P01116-2 other isoform, or with tags, fused parts or gaps G12D/Q61H): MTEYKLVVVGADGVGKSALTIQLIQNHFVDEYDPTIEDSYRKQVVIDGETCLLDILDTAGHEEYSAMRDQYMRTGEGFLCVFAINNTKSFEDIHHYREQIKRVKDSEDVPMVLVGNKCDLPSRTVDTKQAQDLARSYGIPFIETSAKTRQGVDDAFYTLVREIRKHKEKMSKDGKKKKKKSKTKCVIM
Procedure, shortened: as §1

| Compound | inhibition at 20 µM (KRas Q61H mutant) | inhibition at 20 µM [1] | inhibition at 20 µM [2] |
| --- | --- | --- | --- |
| COc1cnc(C(C)(C)N)nc1O [drawing 3491] | 0% | 1 to 25% | 1 to 25% |
| COC(=O)c1c(C)sc2c(N)nc(-c3ccccn3)nc12 [drawing 3499] | 76 to 100% | 51 to 75% | 51 to 75% |
| O=C(NCCc1ccncn1)c1csc2nc(-c3ccccn3)nc(N3CCOCC3)c12 [drawing 3500] | 51 to 75% | 25 to 50% | 25 to 50% |
| CC(C)c1nn(C)cc1-c1csc2c(O)nc(-c3ccccn3)nc12 [drawing 3501] | 51 to 75% | 51 to 75% | 51 to 75% |
| N#Cc1cccc(-c2csc3c(O)nc(-c4ccccn4)nc23)c1 [drawing 3503] | 25 to 50% | 1 to 25% | 1 to 25% |
| Oc1nc(-c2ccccn2)nc2c(-c3cncnc3)csc12 [drawing 3504] | 25 to 50% | 1 to 25% | 1 to 25% |
| Cc1c(-c2csc3c(O)nc(-c4ccccn4)nc23)cnn1C [drawing 3505] | 76 to 100% | 51 to 75% | 51 to 75% |
| Oc1nc(-c2ccccn2)nc2c(-c3cncc(C(F)F)c3)csc12 [drawing 3507] | 1 to 25% | 1 to 25% | 1 to 25% |
| Oc1nc(-c2ccccn2)nc2c(C3CCCCC3)csc12 [drawing 3511] | 51 to 75% | 25 to 50% | 25 to 50% |

Continued, values first:

| inhibition at 20 µM (KRas Q61H mutant) | inhibition at 20 µM [1] | inhibition at 20 µM [2] | Compound |
| --- | --- | --- | --- |
| 51 to 75% | 51 to 75% | 25 to 50% | Cc1sc2c(O)nc(-c3ccccn3)nc2c1C(=O)N1CCN(c2ccccc2)CC1 [drawing 3508] |
| 51 to 75% | 51 to 75% | 25 to 50% | Oc1nc(-c2ccccn2)nc2c(CC3CNC3)csc12 [drawing 3519] |
| 0% | 25 to 50% | 1 to 25% | COc1cnc(CNC(=O)c2csc3c(O)nc(-c4ccccn4)nc23)[nH]c1=O [drawing 3520] |
| 51 to 75% | 51 to 75% | 25 to 50% | COc1cnc(CNC(=O)c2cc3nc(-c4ccccn4)nc(O)c3s2)[nH]c1=O [drawing 3521] |
| 1 to 25% | 25 to 50% | 25 to 50% | Cc1sc2c(O)nc(-c3ccccn3)nc2c1Br [drawing 3522] |
| 0% | 1 to 25% | 0% | COc1cnc(CNC(=O)c2c(C)sc3c(O)nc(-c4ccccn4)nc23)[nH]c1=O [drawing 3523] |
| 0% | 25 to 50% | 1 to 25% | COc1cnc(CNC(=O)c2sc3c(O)nc(-c4ccccn4)nc3c2C)[nH]c1=O [drawing 3524] |
| 51 to 75% | 51 to 75% | 25 to 50% | O=C(c1csc2c(O)nc(-c3ccccn3)nc12)N1CCNC(c2ccc(Cl)cc2)C1 (stereo not drawn) [drawing 3525] |
| 1 to 25% | 1 to 25% | 1 to 25% | Cn1cnc(-c2nc(O)c3c(-c4ccccc4)c(-c4ccncc4)sc3n2)c1 [drawing 3528] |
| 1 to 25% | 1 to 25% | 1 to 25% | COCCNc1nc(-c2ccccn2)nc(-c2cccc(OCCN(C)C)c2)c1Oc1ccccc1 [drawing 3529] |
| 1 to 25% | 1 to 25% | 1 to 25% | OCC1(c2ccc(-c3nc(-c4ccccn4)nc(-c4ccc(C5(CO)CC5)cc4)c3Oc3ccccc3)cc2)CC1 [drawing 3532] |
| 1 to 25% | 1 to 25% | 1 to 25% | Cn1ccnc1-c1nc(O)c2c(-c3ccccc3)c(-c3ccccc3)sc2n1 [drawing 3536] |
| 1 to 25% | 1 to 25% | 1 to 25% | Cn1cnc(-c2nc(O)c3c(-c4ccccc4)c(-c4ccc(CNC(=O)OC(C)(C)C)cc4)sc3n2)c1 [drawing 3537] |
